Laboratory results taken from patent publication US6929685B2, “Alkylamine derivatives as antifouling agents” (Bayer Atiengesellschaft, priority 2001, dated 2005).

Assays:
[1] = system: cyprid larvae of the barnacle Balanus amphitrite; assay: Settlement assay, cyprid larvae of the barnacle; assay type: in vivo; settings: Balanus amphitrite cyprids, seawater, 27° C., Spearman-Karber
Protocol: The rate of settlement of laboratory reared cyprid larvae of the barnacle Balanus amphitrite was determined for testing the activity of candidate antifouling compounds. Settlement Assay Tests are carried out in four replicates in sterile polystyrene multi well plates. Between 25 and 40 cyprid larvae are injected in the dishes containing either 2 ml of test solution (see below), solvent control or a positive control (dichloro-n-octyl-isothiazolinone). Dishes are incubated for 24 h at a temperature of 27° C. ±2. After incubation the cyprids are screened for signs of toxicity. The test is terminated by addition of a drop of 20% formaldehyde and the numbers of settled and non-settled larvae are counted. Settlement is evaluated as follows: 1) non settled: not attached free-swimming cyprids, 2) settled cyprids: attached, but not metamorphosed cyprids, 3) barnacles: attached juvenile barnacles. Categories 2 and 3 are considered to be settled. Percentage settlement in test solution is compared with controls. Estimates of the median effect concentration (EC50) after […] are calculated using the Spearman-Karber method. All seawater used is of natural origin and filtered unto 0.2 μm. Stock solutions of test compounds are prepared by dissolving an amount of test substance in a suitable solvent and subsequent addition of seawater. […]

slime = assay: Raft panel static immersion test of antifouling paints: slime; set-up: key: G: Not present; Some light slime; F: Overall covered; settings: Dutch harbor, sea water
From the text: (§1) The prepared paints have been evaluated on can stability, adhesion and film defects. The antifouling performance has been tested by application of the paints on raft panels. At first the steel panels had been protected with a standard anticorrosive system for marine environments (300 μm in dft). The to be tested antifouling paint had been applied in 2 layers with a total dry film thickness between 200 and 300 μm. Finally the panels were subjected to a static immersion test on rafts at sea harbors in Holland. The paints were inspected for the presence of fouling (% of area covered with fouling organisms) and of film defects every two months. The tested paint formulations are represented in Table 1.
(§2) Further explanations to Table 1: • 1. Model coatings of type 1 (MC-1A/B/C) are for the evaluation of the algicidal properties of the claimed structures at three different representative weight-% next to 35% cuprous oxide. Good performing references are model coating MC-2 and MC-3 [35% cuprous oxide+3% Seanine (MC-2) or 35% cuprous oxide+3% Irgarol (MC-3)]. Base level references are “cuprous oxide only” formulations [cuprous oxide only (35% (MC4) and 50% level (MC-5)]. • 2. Model coatings of type 6 and 7 are for the evaluation of the activity of the claimed structures against “hard fouling” in combination with two different types of algicides: claimed structure (1/2/4%; MC-6-A/B/C)+3% Seanine or claimed structure (1/2/4%; MC-7-A/B/C)+3% Irgarol). Base level references are “algicide only” formulations with 3% Seanine (MC-8) or 3% Irgarol (MC-9).
(§3) 3. Model coatings of type 10 (MC-10A/B) evaluate the total spectrum of biocidal activity by using the claimed structure as only biocide at 2 levels (4 and 8 w %). Good performing references are “cuprous oxide only” formulations [cuprous oxide 35% (MC-4) and 50% (MC-5)]. As blank serves model coating 11 (MC-1 1) containing no biocide at all.
(§4) The claimed structures were tested at several levels of dosage with and without an algicide as co-biocide. The following formulations were used for comparison: formulations with cuprous oxide, formulations with cuprous oxide and commercial co-biocides, a blank and two formulations that only contained the co-biocide and finally a commercial tributyltin-releasing self polishing system.
(§5) An even better protection can be obtained by combining claimed structures with co-biocides like the algicides that are commonly used for antifoulings.

hard fouling = assay: Raft panel static immersion test of antifouling paints: hard fouling; set-up: key: G: Not present; Some light slime; F: Overall covered; settings: Dutch harbor, sea water
From the text: as §1, §2, §3, §4, §5

algae = assay: Raft panel static immersion test of antifouling paints: algae; set-up: key: G: Not present; Some light slime; F: Overall covered; settings: Dutch harbor, sea water
From the text: as §1, §2, §3, §4, §5

fouling organisms = assay: Raft panel static immersion test of antifouling paints: overall; set-up: key: good (G); satisfactory (S); failure (F); settings: Dutch harbor, sea water
From the text: as §1, §2, §3, §4, §5

[2] = model coating 1A: 35% Cu2O + 1% of compound
[3] = model coating 1B: 35% Cu2O + 2% of compound
[4] = model coating 1C: 35% Cu2O + 3% of compound
[5] = model coating 6A: 1% of compound + 3% Seanine
[6] = model coating 6B: 2% of compound + 3% Seanine
[7] = model coating 6C: 4% of compound + 3% Seanine
[8] = model coating 7A: 1% of compound + 3% Irgarol
[9] = model coating 7B: 2% of compound + 3% Irgarol
[10] = model coating 7C: 4% of compound + 3% Irgarol
[11] = model coating 10A: 4% of compound as only biocide
[12] = model coating 10B: 8% of compound as only biocide

In the case of `C=CCCCCCCCCCNC=O` [Compound 8, N-formyl-1-aminoundec-10-ene], the “EC50 for settlement inhibition in ppm” value [1] is reported as 0.60 ppm, the “Performance (1 yr immersed) Slime” value (slime; [2]) is reported as “S” and the “Performance (1 yr immersed) Slime” value (slime; [3]) is reported as “S”. The “Performance (1 yr immersed) Slime” value (slime; [4]) was “G”, the “Performance (1 yr immersed) Slime” value (slime; [5]) was “S” and the “Performance (1 yr immersed) Slime” value (slime; [6]) was “S”. For the same compound, the “Performance (1 yr immersed) Slime” value (slime; [7]) was “G”, the “Performance (1 yr immersed) Slime” value (slime; [8]) was “S” and the “Performance (1 yr immersed) Slime” value (slime; [9]) was “S”. For the same compound, the “Performance (1 yr immersed) Slime” value (slime; [10]) was “S”, the “Performance (1 yr immersed) Slime” value (slime; [11]) was “F” and the “Performance (1 yr immersed) Slime” value (slime; [12]) was “S”. For the same compound, the “Performance (1 yr immersed) Hard fouling” value (hard fouling; [2]) was “G”, the “Performance (1 yr immersed) Hard fouling” value (hard fouling; [3]) was “G” and the “Performance (1 yr immersed) Hard fouling” value (hard fouling; [4]) was “G”. The “Performance (1 yr immersed) Hard fouling” value (hard fouling; [7]) was “G”, the “Performance (1 yr immersed) Hard fouling” value (hard fouling; [12]) was “G” and the “Performance (1 yr immersed) Algae” value (algae; [3]) was “G”. For the same compound, the “Performance (1 yr immersed) Algae” value (algae; [4]) was “G”, the “Performance (1 yr immersed) Algae” value (algae; [5]) was “G” and the “Performance (1 yr immersed) Algae” value (algae; [6]) was “G”. The “Performance (1 yr immersed) Algae” value (algae; [7]) was “G”, the “Performance (1 yr immersed) Algae” value (algae; [8]) was “G” and the “Performance (1 yr immersed) Algae” value (algae; [9]) was “G”. For the same compound, the “Performance (1 yr immersed) Algae” value (algae; [10]) was “G”, the “Performance (1 yr immersed) Overall” value (fouling organisms; [2]) was “S” and the “Performance (1 yr immersed) Overall” value (fouling organisms; [3]) was “S”. The “Performance (1 yr immersed) Overall” value (fouling organisms; [4]) was “G”, the “Performance (1 yr immersed) Overall” value (fouling organisms; [5]) was “F” and the “Performance (1 yr immersed) Overall” value (fouling organisms; [6]) was “S”. For the same compound, the “Performance (1 yr immersed) Overall” value (fouling organisms; [7]) was “G”, the “Performance (1 yr immersed) Overall” value (fouling organisms; [8]) was “F” and the “Performance (1 yr immersed) Overall” value (fouling organisms; [9]) was “S”. The “Performance (1 yr immersed) Overall” value (fouling organisms; [10]) was “S”, the “Performance (1 yr immersed) Overall” value (fouling organisms; [11]) was “F” and the “Performance (1 yr immersed) Overall” value (fouling organisms; [12]) was “S”.
